Measured values as given in PMC11618496, “SHIV remission in macaques with early treatment initiation and ultra long-lasting antiviral activity” (Nature Communications, 2024).
“And” between values parts separate entries of the source, which are not always exact repeats. Identical values can stand only once. Values belong to the molecule of their own block, whether it stands above or below them.

Experiments:
[1] = Drug concentrations in cerebrospinal fluid (CSF); assay type: in vivo, Rhesus macaques; conditions: for concentration at 4 weeks: CSF; for Kp at 4 weeks: CSF and plasma, read-out: CSF-to-plasma ratio
Method: (§1) A cocktail of methanol containing internal standards was added to precipitate proteins. After a brief centrifugation and removal of protein precipitates, the supernatant was evaporated to near dryness and re-suspended with mobile phase A. An aqueous-acetonitrile mobile-phase gradient was used to elute the drugs from a C18 column (100*1 mm, Imtakt) and into the analyzer. Drug concentrations were calculated from a standard curve with a range of 0.5–2000 ng/mL using Analyst software. […] Plasma concentrations of CAB were measured weekly. Plasma concentrations of RPV were measured 4 (9 observations), 2 (2 observations), or 3 (2 observations) weeks after the previous injection. The concentrations of RPV in plasma, CSF, and tissues and the concentrations of CAB in CSF were measured at the Clinical Pharmacology and Analytical Chemistry (CPAC) Laboratory, University of North Carolina Center for AIDS Research. The LOQ for RPV in plasma is 1 ng/mL.

[2] = Extracellular TFV, FTC, CAB and RPV in rectal tissue homogenates; assay type: in vivo, Rhesus macaques; conditions: collected after 1 to 3 months of ART
Method: as §1

[3] = cited from earlier work; for median trough concentration in human PBMCs: reviewer comment, 25mg TAF dose ref 12
[4] = for median concentration in PBMCs during the entire treatment period: eART + VES group; for median (range) concentration in PBMCs, period of full adherence / median (range) concentration in PBMCs, period of suboptimal adherence: eART group; for median (range) concentration in PBMCs, period of full adherence: months 0–3.5, 24 h post-dosing, oral FTC/TAF; for median (range) concentration in PBMCs, period of suboptimal adherence: months 3.5 to 6
Method: (§2) RT-SHIV was selected for the study since it contains the HIVHXBc2 RT that is sensitive to RPV. RT-SHIV was obtained through the NIH AIDS Reagent Program, Division of AIDS, NIAID, NIH[17]–[19]. The stock was maintained in liquid nitrogen in individual 1 mL aliquots until use. […] CAB LA and RPV LA were obtained from ViiV Healthcare and Janssen, respectively. […] CAB LA (50 mg/kg) and RPV LA (200 mg/kg) were given intramuscularly once a month[27],[45]. The macaque used in the terminal PK study received CAB LA (50 mg/kg) and RPV LA (200 mg/kg) from Cabenuva®.
(§3) PBMCs were isolated from blood collected in BD Vacutainer® CPT™ Sodium Citrate Cell Preparation Tubes, and red blood cells were lysed with BioLegend RBC lysis buffer. Cell counts and viability were determined using a Guava Cell Counter and Cytosoft data acquisition and analysis software (version 6.02; Millipore Billerica, MA) or a Countess (Invitrogen). Three million viable cells were pelleted, washed with 1 mL of physiological saline, and resuspended in 500 µl ice-cold 80% methanol. Samples were vortexed for 1 min and immediately frozen at − 70 °C. Prior to analysis, cellular debris was pelleted, and supernatants were transferred to new tubes. Supernatants were dried down and reconstituted in 100 μl of 50 mM ammonium acetate buffer (pH 7.0), then centrifuged at 17,000 × g to remove insoluble particulates. […] Calibration curves were generated from serially diluted standards over the range from 0.25 to 10 nM.

[5] = rhesus monkey, in vivo
[6] = tested on: reverse transcriptase; conditions: Rectal
Method: as §3

[7] = cited from earlier work; for plasma levels in humans: 400 mg of CAB LA or 600 mg of RPV LA every month for 48 weeks ref 21; for apparent terminal elimination half-life: humans, single intramuscular injection ref 16
[8] = CAB and RPV concentrations in macaque plasma; assay type: in vivo, Rhesus macaques; conditions: for median plasma levels during the treatment phase: macaques, monthly IM CAB LA 50 mg/kg and RPV LA 200 mg/kg; for plasma concentration, individual macaques: matched to CSF samples; for concentration at 4 weeks: matched to CSF: ~ 6 months of treatment, 4 weeks after the previous CAB LA/RPV LA injection, read-out: Plasma, median (range)
Method: Plasma concentrations of CAB were measured weekly.

[9] = no reference given; cited from earlier work
[10] = no reference given; cited from earlier work; remark: listed apart in the source
[11] = in vivo; conditions: female, rhesus monkey
Method: as §2, §1

[12] = design: method as in Letendre; conditions: 7-10 days after injection ref Letendre; cited from earlier work
[13] = Intracellular TFV-DP and FTC-TP in lymph node mononuclear cells and rectal tissues; conditions: lymph node mononuclear cells from axillary or inguinal lymph nodes
[14] = ~ 6 months of treatment, 4 weeks after the previous CAB LA/RPV LA injection
[15] = rhesus monkey, other: oral (FTC) and intramuscular (CAB LA), ~ 6 months of treatment, 4 weeks after the previous CAB LA/RPV LA injection, read-out: CSF, median (range)
[16] = rhesus monkey, intramuscular, 4 weeks after dosing (author rebuttal), read-out: macaque CSF values, approximate
[17] = rhesus monkey, plasma, intramuscular
[18] = Tissue concentration, Axillary lymph nodes
[19] = Tissue concentration, Basal ganglia
[20] = Tissue concentration, Cerebellum
[21] = Tissue concentration, Cervical lymph nodes
[22] = Tissue concentration, Iliac lymph nodes
[23] = Tissue concentration, Inguinal lymph nodes
[24] = Tissue concentration, Mesenteric lymph nodes
[25] = Tissue concentration, Spinal cord
[26] = median concentration in brain tissues
[27] = median concentration in lymphoid tissues
[28] = median concentration in the GI tract

CSF, median (range) [1, 14]: not detected and BLQ
Rectal tissues, extracellular drug, median (range) [2]: 0.64 (0.18–0.87) ng/mg of tissue
SMILES: C[C@H](Cn1cnc2c(N)ncnc21)OCP(=O)(O)O [TFV, tenofovir]

concentration at 4 weeks [1, 15]: 2.36 ng/mL
CSF, median (range) [1, 14]: 2.36 (BLQ-2.65) ng/mL
Rectal tissues, extracellular drug, median (range) [2]: 1.48 (0.22–2.16) ng/mg of tissue
SMILES: Nc1nc(=O)n([C@@H]2CS[C@H](CO)O2)cc1F [FTC, emtricitabine]

SMILES: CC(C)OC(=O)[C@H](C)N[P@](=O)(CO[C@H](C)Cn1cnc2c(N)ncnc21)Oc1ccccc1 [TAF, tenofovir alafenamide]
fold higher concentrations of TFV-DP in lymphoid tissues and PBMCs over TDF [3]: ~ 6

SMILES: Nc1nc(=O)n([C@@H]2CS[C@H](COP(=O)(O)OP(=O)(O)OP(=O)(O)O)O2)cc1F [FTC-TP, emtricitabine triphosphate]
concentration in human PBMCs ([3]; humans treated with 25 mg of TAF (TFV-DP) or 300 mg of FTC (FTC-TP) ref 12): 2,060 fmols/10^6 PBMCs
median peak concentration in human PBMCs ([3]; reviewer comment ref 12): 5149 fmol/10^6 cells
median trough concentration in human PBMCs [3]: 2060 fmol/10^6 cells
median concentration in PBMCs during the entire treatment period [4]: 553 fmols/10^6 PBMCs
median (range) concentration in PBMCs, period of full adherence [4]: 573 (333–1528) fmols/10^6 PBMCs
median (range) concentration in PBMCs, period of suboptimal adherence [4]: 306 (undetectable-964) fmols/10^6 PBMCs
fold lower in PBMCs than in humans ([4]; full adherence vs humans treated with 300 mg of FTC): approximately 3.6
Rectal tissues, intracellular, median (range) [5]: BLQ (BLQ-17)
Panel F ratio dCTP/FTC-TP [6]: 82.22 and 103.48

SMILES: Cc1cc(/C=C/C#N)cc(C)c1Nc1ccnc(Nc2ccc(C#N)cc2)n1 [RPV, rilpivirine]
plasma levels in humans [7]: 97.5 ng/mL
apparent terminal elimination half-life [7]: 91 to 196 days
Kp at 4 weeks ([1]; rhesus monkey, intramuscular): 0.028
concentration at 4 weeks [1, 16]: ~4 ng/mL
concentration at 4 weeks [1, 15]: 4.06 ng/mL
times CSF-to-plasma ratio higher than for CAB ([1]; rhesus monkey, in vivo): 4
CSF, median (range) [1, 14]: 4.06 (2.93–4.52) ng/mL
median plasma levels during the treatment phase [8]: 108 ng/mL
plasma concentration, individual macaques [8]: 143 ng/mL and 152 ng/mL and 150 ng/mL and 153 ng/mL
persistence in plasma after the last dose [8, 17]: 2 years
concentration at 4 weeks [8, 17]: 151 ng/mL
in vitro EC90 [9]: 0.66 ng/mL
protein-adjusted 90% inhibitory concentration (PA-IC90) [10]: 12 ng/mL
Rectal tissues, extracellular drug, median (range) [2]: 0.45 (0.12–1.1) ng/mg of tissue
times brain tissue concentration above the in vitro EC90 ([11]; 3 weeks): ~ 500
times median brain tissue concentration higher than that of CAB ([11]; 3 weeks): 5.8
concentration at 3 weeks [11, 18]: 773 ng/g
concentration at 3 weeks [11, 19]: 340 ng/g
concentration at 3 weeks ([11]; Tissue concentration, Cecum): 670 ng/g
concentration at 3 weeks [11, 20]: 259 ng/g
concentration at 3 weeks [11, 21]: 1770 ng/g
concentration at 3 weeks ([11]; Tissue concentration, Duodenum): 666 ng/g
concentration at 3 weeks ([11]; Tissue concentration, Ileum): 518 ng/g
concentration at 3 weeks [11, 22]: 736 ng/g
concentration at 3 weeks [11, 23]: 692 ng/g
concentration at 3 weeks ([11]; Tissue concentration, Jejunum): 697 ng/g
concentration at 3 weeks [11, 24]: 28800 ng/g
concentration at 3 weeks ([11]; Tissue concentration, Rectum): 447 ng/g
concentration at 3 weeks [11, 25]: 437 ng/g
concentration at 3 weeks [11, 26]: 340 ng/g
concentration at 3 weeks [11, 27]: 773 ng/g
concentration at 3 weeks [11, 28]: 666 ng/g
human CSF levels [12]: ~ 2 ng/ml

SMILES: CC(Cn1cnc2c(N)ncnc21)OCP(=O)(O)OP(=O)(O)OP(=O)(O)O (stereo in doubt) [TFV-DP, tenofovir diphosphate]
median trough concentration in human PBMCs [3]: 523 fmol/10^6 cells
fold higher concentrations in PBMCs and lymphoid tissues than achieved with TDF ([4]; comparison with ref 10): about 10
median concentration in PBMCs during the entire treatment period [4]: 1162 fmols/10^6 PBMCs
median (range) concentration in PBMCs, period of full adherence [4]: 1753 (275–2809) fmols/10^6 PBMCs
median (range) concentration in PBMCs, period of suboptimal adherence [4]: 329 (63–1688) fmols/10^6 PBMCs
times higher in PBMCs than in humans ([4]; full adherence vs humans treated with 25 mg of TAF): about 3.2
Lymph nodes, median (range) [13]: 367 (142–620) fmol/10^6 cells

SMILES: C[C@H]1CO[C@@H]2Cn3cc(C(=O)NCc4ccc(F)cc4F)c(=O)c(O)c3C(=O)N12 [CAB, cabotegravir]
plasma levels in humans [7]: 2740 ng/mL
apparent terminal elimination half-life [7]: 39 to 80 days
Kp at 4 weeks ([1]; rhesus monkey, intramuscular): 0.006
concentration at 4 weeks [1, 16]: ~6 ng/mL
concentration at 4 weeks [1, 15]: 5.95 ng/mL
CSF, median (range) [1, 14]: 5.95 (4.77–7.43) ng/mL
median plasma levels during the treatment phase [8]: 2400 ng/mL
plasma concentration, individual macaques [8]: 1040 ng/mL and 1050 ng/mL and 630 ng/mL and 480 ng/mL
decline of plasma concentration below the PA-IC90 after the last injection [8, 17]: declined below the PA-IC90 two months later
times plasma level above the PA-IC90 during treatment [8, 17]: 13
concentration at 4 weeks [8, 17]: 835 ng/mL
in vitro EC90 [9]: 0.34 ng/mL
protein-adjusted 90% inhibitory concentration (PA-IC90) [10]: 166 ng/mL
Rectal tissues, extracellular drug, median (range) [2]: 0.60 (0.25–2.65) ng/mg of tissue
times brain tissue concentration above the in vitro EC90 ([11]; 3 weeks): ~ 100
concentration at 3 weeks [11, 18]: 412 ng/g
concentration at 3 weeks [11, 19]: 26 ng/g
concentration at 3 weeks ([11]; Tissue concentration, Cecum): 1370 ng/g
concentration at 3 weeks [11, 20]: 58 ng/g
concentration at 3 weeks [11, 21]: 583 ng/g
concentration at 3 weeks ([11]; Tissue concentration, Duodenum): 569 ng/g
concentration at 3 weeks ([11]; Tissue concentration, Ileum): 695 ng/g
concentration at 3 weeks [11, 22]: 1280 ng/g
concentration at 3 weeks [11, 23]: 975 ng/g
concentration at 3 weeks ([11]; Tissue concentration, Jejunum): 643 ng/g
concentration at 3 weeks [11, 24]: 23700 ng/g
concentration at 3 weeks ([11]; Tissue concentration, Rectum): 773 ng/g
concentration at 3 weeks [11, 25]: 288 ng/g
concentration at 3 weeks [11, 26]: 58 ng/g
concentration at 3 weeks [11, 27]: 975 ng/g
concentration at 3 weeks [11, 28]: 695 ng/g
human CSF levels [12]: ~10 ng/mL
